# Experimental data from ChEMBL document CHEMBL6087467, “Probing the Histamine H1 Receptor Binding Site to Explore Ligand Binding Kinetics” (J Med Chem, 2025).
# Columns and labels:
# Histamine H1 receptor [1] = target: T1, Histamine H1 receptor (Homo sapiens, UniProt P35367); format: cell-based; conditions: hek293t
# Histamine H1 receptor [2] = target: T1, Histamine H1 receptor; conditions: HEK293T, time 4.0 hrs
# Histamine H1 receptor [3] = target: T1, Histamine H1 receptor; conditions: HEK293T, time 4.0 hrs; remark: listed apart in the source
# Histamine H1 receptor [4] = target: T1, Histamine H1 receptor; assay: biochemical; format: cell-based, HEK293T
# Description: Displacement of [3H]-mepyramine from human histamine H1 receptor expressed in HEK293T cells assessed as inhibition constant incubated for 4 hrs by competitive binding assay
# Histamine H1 receptor [5] = target: T1, Histamine H1 receptor; assay: biochemical; format: cell-based, HEK293T; remark: listed apart in the source
# Description: Displacement of [3H]-mepyramine from human histamine H1 receptor expressed in HEK293T cells assessed as dissociation constant incubated for 4 hrs by competitive binding assay
# T1 sequence (P35367 whole entry): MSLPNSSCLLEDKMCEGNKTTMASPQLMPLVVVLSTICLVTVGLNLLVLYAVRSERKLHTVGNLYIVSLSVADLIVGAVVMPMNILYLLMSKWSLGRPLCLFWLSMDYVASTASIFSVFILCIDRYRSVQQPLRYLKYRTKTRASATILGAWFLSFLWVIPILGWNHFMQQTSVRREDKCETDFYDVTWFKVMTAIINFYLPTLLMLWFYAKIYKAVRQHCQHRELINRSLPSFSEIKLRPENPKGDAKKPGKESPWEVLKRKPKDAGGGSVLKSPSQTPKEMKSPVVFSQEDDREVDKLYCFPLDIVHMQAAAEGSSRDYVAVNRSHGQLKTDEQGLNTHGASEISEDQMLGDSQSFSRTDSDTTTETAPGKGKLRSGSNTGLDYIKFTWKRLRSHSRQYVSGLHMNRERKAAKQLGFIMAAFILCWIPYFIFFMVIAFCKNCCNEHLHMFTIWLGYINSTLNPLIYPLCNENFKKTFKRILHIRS
SMILES,Dissociation rate constant (koff) (Histamine H1 receptor [1]),Ka (Histamine H1 receptor [2]),Retention time (Histamine H1 receptor [3]),Ki (Histamine H1 receptor [4]),Kd (Histamine H1 receptor [5])
O=C(O)CCCCCN1CCC(Oc2ccccc2Cc2ccccc2)CC1,0.001 s⁻¹,4 10^6/M/min,17 min,,
CN1CCC(Oc2ccccc2Cc2ccccc2)CC1,,160 10^6/M/min,2 min,,
c1ccc(Cc2ccccc2OC2CCN(CCCCc3nnn[nH]3)CC2)cc1,0.00035 s⁻¹,3.7 10^6/M/min,48 min,,
CN(C)CC/C=C1/c2ccccc2COc2ccc(CC(=O)O)cc21,,1.9 10^6/M/min,190 min,,
O=C(O)CCCCCCCN1CCC(Oc2ccccc2Cc2ccccc2)CC1,0.00115 s⁻¹,2.37 10^6/M/min,15 min,,
CN1CCC(Oc2cc(C(=O)O)ccc2Cc2ccccc2)CC1,0.017 s⁻¹,0.06 10^6/M/min,1.2 min,,
O=C(O)CCCCN1CCC(Oc2ccccc2Cc2ccccc2)CC1,0.00075 s⁻¹,3.2 10^6/M/min,23 min,,
CN1CCC(Oc2cc(CC(=O)O)ccc2Cc2ccccc2)CC1,0.00283 s⁻¹,1.3 10^6/M/min,6 min,,
Cc1ccc(/C(=C\CN2CCCC2)c2ccccn2)cc1 [TRIPROLIDINE],,36 10^6/M/min,,,
COc1ccc(Cc2ccccc2)c(OC2CCN(C)CC2)c1,0.0083 s⁻¹,60 10^6/M/min,2 min,,
O=C(O)CCCN1CCC(Oc2ccccc2Cc2ccccc2)CC1,0.0017 s⁻¹,2.9 10^6/M/min,10 min,,
O=C(O)CCN1CCC(Oc2ccccc2Cc2ccccc2)CC1,0.00183 s⁻¹,2.9 10^6/M/min,9 min,,
O=C(O)COCCN1CCN([C@H](c2ccccc2)c2ccc(Cl)cc2)CC1,,1.4 10^6/M/min,,,
CN1CCC(Oc2c(/C=C/C(=O)O)cccc2Cc2ccccc2)CC1,0.000917 s⁻¹,1.6 10^6/M/min,3 min,,
O=C(O)CCCCCCN1CCC(Oc2ccccc2Cc2ccccc2)CC1,0.00127 s⁻¹,2.5 10^6/M/min,13 min,,
CN1CCC(Oc2cc(/C=C/C(=O)O)ccc2Cc2ccccc2)CC1,0.000917 s⁻¹,0.62 10^6/M/min,18 min,,
CN1CCC(Oc2cc(CO)ccc2Cc2ccccc2)CC1,0.00417 s⁻¹,98 10^6/M/min,4 min,,
CN1CCC(Oc2c(CO)cccc2Cc2ccccc2)CC1,0.0122 s⁻¹,27 10^6/M/min,1.4 min,,
CN1CCC(Oc2c(Cc3ccccc3)cccc2C(=O)O)CC1,0.004 s⁻¹,0.5 10^6/M/min,4.2 min,,
CC(=O)Cc1cccc(Cc2ccccc2)c1OC1CCN(C)CC1,0.00138 s⁻¹,2.08 10^6/M/min,12.1 min,39.8 nM,39.8 nM
